Results reported in patent publication US10766940B2, “Brain penetrant amylin receptor based peptides for Alzheimer's disease” (The Governors of the University of Alberta, priority 2016, dated 2020).
Residues, ends and D or L forms follow the SMILES beside them. No end group written: not given here.

Legend:
Format in all cases: cell-based
[1] = test system: human fetal neurons (HFNs); assay: Aβ1-42 cytotoxicity (MTT, live/dead) in human fetal neurons; conditions: for block of Aβ1-42 triggered cell death, human fetal neuronal cells (MTT): Aβ1-42 20 μM
Experimental: (§1) b) To investigate the antagonistic activity of peptides against Aβ cytotoxicity in vitro, HFNs and N2a cells were used. Cells were seeded to 5000 cells/well in a 96-well plate in MEM-10% FBS and DMEM/OptiMEM-5% FBS for overnight. […] At the end of treatment, 20 μl of 5 mg/ml methylthiazolyldiphenyl-tetrazolium bromide (MTT) was added to each well, and incubated at 37° C. for 3 hours. Medium was removed, 100 μl of MTT solvent (isopropanol with 4 mM HCl) added to each well, and the plates were incubated for 30 minutes at room temperature on a rotating shaker. Plates were analyzed on a microplate reader at a 562-nm wavelength. The Live/Dead assay kit was purchased from Invitrogen and assay followed the production instruction. The assayed cells were fixed with 4% paraformaldehyde in PBS and photo imaged with Axio Zeiss fluorescent microscopy. The dead cells were further counted using ImageJ software.
(§2) f) To investigate the antagonistic activity of peptide fragments against Aβ cytotoxicity in vitro, (human fetal neurons) HFNs, human neuroblastoma, SK-N-SH cells and N2a mouse neuroblastoma cells were used. Cells were seeded to 5000 cells/well in a 96-well plate in MEM-10% FBS and DMEM/OptiMEM-5% FBS for overnight. Cells in culture media were preincubated for 8 h with or without AC253 or fragments R5, R14, R11, and followed by treatment with Aβ1-42 for 24 h. At the end of treatment, 20 μl of 5 mg/ml methylthiazolyldiphenyl-tetrazolium bromide (MTT) was added to each well, and incubated at 37° C. for 3 h. Medium was removed, 100 μl of MTT solvent (isopropanol with 4 mM HCl) added to each well, and the plates were incubated for 30 min at room temperature on a rotating shaker. Plates were analyzed on a microplate reader at a 562-nm wavelength.

[2] = test system: N2a mouse neuroblastoma cells; assay: Aβ1-42 cytotoxicity (MTT) in N2a cells; conditions: for block of Aβ1-42 triggered cell death, N2a (MTT): Aβ1-42 20 μM
Experimental: as §1, §2

[3] = biological target: T1, AMY3 receptor (HEK293-AMY3 cells) (Homo sapiens, UniProt O60896+P30988); assay: Flow cytometry binding and uptake of Cy5 labeled peptides in AMY3-HEK cells; conditions: for flow cytometry binding to HEK293-AMY3 cells: 10 μM
T1 construct: expressed in transfected cells; AMY3-293 / AMY3-HEK)
T1 sequence (P30988 25-474): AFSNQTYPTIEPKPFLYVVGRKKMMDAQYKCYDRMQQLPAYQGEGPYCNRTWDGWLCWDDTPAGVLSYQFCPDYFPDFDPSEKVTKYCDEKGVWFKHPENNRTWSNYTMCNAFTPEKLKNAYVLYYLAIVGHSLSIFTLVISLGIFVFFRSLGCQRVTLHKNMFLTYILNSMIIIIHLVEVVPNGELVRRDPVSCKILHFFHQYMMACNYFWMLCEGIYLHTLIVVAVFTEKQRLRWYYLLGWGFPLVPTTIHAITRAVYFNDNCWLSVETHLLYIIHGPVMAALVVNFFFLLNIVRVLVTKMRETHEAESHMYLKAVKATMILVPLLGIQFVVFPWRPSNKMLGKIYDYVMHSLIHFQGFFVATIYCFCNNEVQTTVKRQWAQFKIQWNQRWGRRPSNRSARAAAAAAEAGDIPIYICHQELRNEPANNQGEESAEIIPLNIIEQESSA
T1 sequence (O60896 24-148 partner): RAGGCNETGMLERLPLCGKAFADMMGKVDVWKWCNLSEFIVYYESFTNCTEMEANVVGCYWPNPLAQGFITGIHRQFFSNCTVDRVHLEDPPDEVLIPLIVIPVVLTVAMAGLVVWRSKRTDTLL
Experimental: d) For flow cytometry studies, AMY3-293 cells were used to determine cell binding and uptake and binding of Cy5-AC253, and Cy5-cAC253 peptides. Cell were plated at a density of 1.5×10^5 cells/well and cultured overnight in 12-well plates at 37° C. Cy5 labelled peptides (5 μM) were added and incubated for 1 hour at 37° C. in serum free media. The culture media was discarded, and cell monolayers were washed with PBS containing 2 mM EDTA and 0.5% BSA adjusted to pH 7.4 at 37° C. Cells were washed again with cold buffer and incubated with 0.25% trypsin to remove cell surface-associated fluorophores. Cells were dispersed in FACS solution (10% FBS in PBS) and analyzed using a FACSCanto II flow cytometer (BD Biosciences, USA) selecting a detection window between 720 and 840 nm. Fluorescence histograms and dot plots were generated using the data were processed with FLOWJO software (Tree Star, Inc, USA). At least 10,000 gated events per sample were analyzed. The experiment was repeated with different peptide concentration ranging from 0.5-10 μM, and mean fluorescence intensity of peptides was extrapolated. To further study the cell uptake mechanism, cells were preincubated with cytochalasin D (cytoD, […]) for 30 minutes, and the experiment was repeated as above. To determine the energy dependent mechanism, cell uptake experiment was undertaken at 4° C., and for the competition experiment, cells was pre-incubated with amylin (30 μM) for 30 minutes, and the experiment was repeated.

With `CC(C)C[C@H](NC(=O)[C@H](CCC(=O)O)NC(=O)[C@H](CCC(N)=O)NC(=O)[C@@H](N)CO)C(=O)N[C@@H](Cc1c[nH]cn1)C(=O)N[C@@H](CCCNC(=N)N)C(=O)N[C@@H](CC(C)C)C(=O)N[C@@H](CCC(N)=O)C(=O)N[C@H](C(=O)N[C@@H](Cc1ccc(O)cc1)C(=O)N1CCC[C@H]1C(=O)N[C@@H](CCCNC(=N)N)C(N)=O)[C@@H](C)O` [R5] (H-SQELHRLQTYPR-NH2; N-terminus assumed) the “block of Aβ1-42 triggered cell death, human fetal neuronal cells (MTT)” value [1] was “block the effect of Aβ1-42”, the “block of Aβ1-42 triggered cell death, N2a (MTT)” value [2] was “block the effect of Aβ1-42” and the “flow cytometry binding to HEK293-AMY3 cells” value ([3]; 37° C., 60 min) was “selective and significant specific binding”.

`CC(C)C[C@H](NC(=O)[C@H](CCCNC(=N)N)NC(=O)CNC(=O)[C@@H](N)CC(C)C)C(=O)N[C@@H](CO)C(=O)N[C@@H](CCC(N)=O)C(=O)N[C@@H](CCC(=O)O)C(=O)N[C@@H](CC(C)C)C(=O)N[C@@H](Cc1c[nH]cn1)C(=O)N[C@@H](CCCNC(=N)N)C(=O)N[C@@H](CC(C)C)C(=O)N[C@@H](CCC(N)=O)C(=O)N[C@H](C(=O)N[C@@H](Cc1ccc(O)cc1)C(=O)N1CCC[C@H]1C(=O)N[C@@H](CCCNC(=N)N)C(=O)N[C@H](C(=O)N[C@@H](CC(N)=O)C(=O)N[C@H](C(=O)NCC(=O)N[C@@H](CO)C(=O)N[C@@H](CC(N)=O)C(=O)N[C@H](C(=O)N[C@@H](Cc1ccc(O)cc1)C(N)=O)[C@@H](C)O)[C@@H](C)O)[C@@H](C)O)[C@@H](C)O` [AC253] was tested, and the “attenuation of Aβ1-42 induced cell death, HFNs” value ([1]; Aβ1-42 10 μM, peptide 10 μM pre-applied, MTT and live-dead assays) was “attenuated”, the “attenuation of Aβ1-42 induced cell death, N2a” value ([2]; Aβ1-42 10 μM, peptide 10 μM pre-applied, MTT) was “attenuated” and the “mean fluorescence intensity at 4° C.” value ([3]; 4° C.) was 400±75. The “mean fluorescence intensity, binding and uptake” value ([3]; Cy5 labeled peptide 5 μM, 60 min, 37° C.) was 1200, the “mean fluorescence intensity after pre-incubation with hAmylin” value ([3]; hAmylin (30 μM) pre-incubation 30 minutes) was 500±100 and the “mean fluorescence intensity in the presence of cytoD” value ([3]; preincubation with cytochalasin D) was 450±50.

With “LGRLSQELHRLQTY (LGRLSQELHRLQTY-NH2) [R14]” the “block of Aβ1-42 triggered cell death, human fetal neuronal cells (MTT)” value [1] was “block the effect of Aβ1-42”, the “block of Aβ1-42 triggered cell death, N2a (MTT)” value [2] was “block the effect of Aβ1-42” and the “flow cytometry binding to HEK293-AMY3 cells” value ([3]; 37° C., 60 min) was “selective and significant specific binding”.
